Data: patent US10829516B2 (London Health Sciences Centre Research Inc., priority 2015, dated 2020)
Non-standard residues stand in square brackets, D forms with d. Residues, ends and D or L forms follow the SMILES beside them. *: point of attachment. 1Nal = N[C@@H](Cc1cccc2ccccc12)C(=O)O; d2Nal = N[C@H](Cc1ccc2ccccc2c1)C(=O)O; Benzoyl(4-F) = O=C(c1ccc(F)cc1)*; d2Thi = N[C@H](Cc1cccs1)C(=O)O; Propanoyl(2-F) = CC(F)C(=O)*; Dap = NC[C@H](N)C(=O)O; Aib = CC(C)(N)C(=O)O; Inp = O=C(O)C1CCNCC1

Molecular target: T1, GHS-R1a (Homo sapiens, UniProt Q92847)
T1 construct: expressed in transfected cells; host or cells: HEK293
Test: Receptor-ligand competitive binding assay, HEK293/GHS-R1a cells with [125I]ghrelin as radioligand
Settings: not given
Protocol: Receptor-Ligand Binding Assay
Competitive binding assays were run at the Lawson Health Research Institute at St. Joseph's Health Care in London. […] To begin with, a fresh solution of binding buffer (50 ml) was made up by adding HEPES (0.3 g, 25 mM), MgCl2 (0.051 g, 5 mM), CaCl2 (7.4×10^−3 g, 1 mM), EDTA (0.015 g, 2.5 mM) and BSA (0.2 g, 0.4%) to distilled H2O. The resultant solution was mixed over gentle heat. The pH was then adjusted to 7.4 and the solution filtered. Two miniature complete protease inhibitor tablets were then added and the final buffer solution kept on ice.
After the buffer had been made, assay tubes were labelled and kept on ice during the setup. To assay tubes 1-21, 25-27 and 28-30 was added binding buffer (200 μl, 230 μl and 300 μl respectively). No buffer was added to tubes 22-24. An aliquot of frozen cells was thawed to room temperature, centrifuged (3000×g, 10 mins, room temperature) and the subsequent cell pellet re-suspended in binding buffer (2 ml) and placed on ice. Cells (50 μl) were then added to assay tubes 1-21 and 25-27. Cold peptide was then prepared. This was carried out by adding stock peptide (20 μl) to binding buffer (180 μl) to make a peptide solution of 10^−4M concentration. Binding buffer (180 μl) was then added to assay tubes labelled 10^−5 to 10^−11. A series of dilutions was then made in order to acquire 10^−5 to 10^−11M concentrations. Cold peptide (30 μl) was then added to the corresponding assay tubes in triplicate.
All assay tubes were then vortexed, capped and immediately agitated (550 rpm, 20 mins, 37° C.). After 20 minutes, tubes 1-21 and 25-27 were spun in a large centrifuge (2800 rpm, 2 mins, 4° C.). The solution in all of the tubes was then transferred to Eppendorf tubes (0.5 ml), further binding buffer added (200 μl), the solutions mixed by pipetting and transferred to 0.5 ml tubes. The tubes were then spun again (13 000×g, 5 mins, 4° C.) and placed on ice. The supernatant was removed and the cell pellet rinsed with ice-cold Tris-HCl (200 μl, 50 mM, pH 7.4) and the tubes mixed by inversion. Tubes were spun a final time (13,000×g, 5 mins, 4° C.), cooled on ice and supernatant removed. The tubes were then placed in 12×75 mm assay tubes and counted using a gamma counter (see protocol 3). The binding assay may be summarized as follows:
Competitive binding assays were run on the compounds of Table 2 as described in Example 1. The formulas of the compounds of Table 2 are illustrated in FIGS. 49 and 50.

T1 sequence (Q92847 whole entry): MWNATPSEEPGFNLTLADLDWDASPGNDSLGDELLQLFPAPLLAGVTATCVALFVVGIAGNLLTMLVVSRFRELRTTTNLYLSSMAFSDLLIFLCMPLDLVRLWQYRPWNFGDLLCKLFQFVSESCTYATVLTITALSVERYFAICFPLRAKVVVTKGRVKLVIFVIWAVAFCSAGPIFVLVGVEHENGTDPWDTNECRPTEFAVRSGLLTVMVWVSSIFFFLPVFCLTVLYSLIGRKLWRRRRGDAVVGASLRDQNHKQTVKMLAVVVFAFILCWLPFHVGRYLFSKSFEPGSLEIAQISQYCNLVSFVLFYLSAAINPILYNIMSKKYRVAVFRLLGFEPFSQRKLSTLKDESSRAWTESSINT

Row | Compound | IC50
1 | CC(C)(N)C(=O)N[C@@H](Cc1c[nH]cn1)C(=O)N[C@H](Cc1ccc2ccccc2c1)C(=O)N[C@H](Cc1cccs1)C(=O)N[C@@H](CCCCNC(=O)c1ccc(F)cc1)C(N)=O [Thi-4-FB-Ipamorelin, H-Aib-His-D-2-Nal-D-2-Thi-Lys(4-FB)-NH2] (H-[Aib]H[d2Nal][d2Thi]K(Benzoyl(4-F))-NH2) | 161 nM
2 | C[C@H](NC(=O)[C@@H](Cc1c[nH]c2ccccc12)NC(=O)[C@@H](N)Cc1c[nH]cn1)C(=O)N[C@@H](Cc1c[nH]c2ccccc12)C(=O)N[C@H](Cc1ccccc1)C(=O)N[C@@H](CCCCNC(=O)c1ccc(F)cc1)C(N)=O [Compound 4-FB-GHRP-6, H-His-D-Trp-Ala-Trp-D-Phe-Lys(4-FB)-NH2] (H-H[dW]AW[dF]K(Benzoyl(4-F))-NH2) | 384 nM
3 | C[C@H](NC(=O)[C@@H](Cc1ccc2ccccc2c1)NC(=O)[C@@H](C)N)C(=O)N[C@@H](Cc1c[nH]c2ccccc12)C(=O)N[C@H](Cc1ccccc1)C(=O)N[C@@H](CCCCN)C(N)=O [GHRP-2, H-D-Ala-D-2-Nal-Ala-Trp-D-Phe-Lys-NH2, reference compound] (H-[dA][d2Nal]AW[dF]K-NH2) | 449 nM
4 | NCCCC[C@H](NC(=O)[C@H](Cc1cccc2ccccc12)NC(=O)[C@@H](Cc1ccc2ccccc2c1)NC(=O)[C@@H](Cc1ccc2ccccc2c1)NC(=O)C1CCNCC1)C(N)=O [MMF-01-113-G, H-Inp-D-2-Nal-D-2-Nal-1-Nal-Lys-NH2] (H-[Inp][d2Nal][d2Nal][1Nal]K-NH2) | 27.6 nM
5 | CC(F)C(=O)NCCCC[C@H](NC(=O)[C@H](Cc1ccccc1)NC(=O)[C@H](CO)NC(=O)[C@@H](Cc1ccc2ccccc2c1)NC(=O)[C@@H](Cc1ccc2ccccc2c1)NC(=O)C1CCNCC1)C(N)=O (stereo partly drawn) [TL-MF-5-2FP, H-Inp-(D-2-Nal)2-Ser-Phe-Lys(2-FP)-NH2] (H-[Inp][d2Nal][d2Nal]SFK(Propanoyl(2-F))-NH2) | 62.9 nM
6 | C[C@H](NC(=O)[C@@H](Cc1c[nH]c2ccccc12)NC(=O)[C@@H](N)Cc1c[nH]cn1)C(=O)N[C@@H](Cc1c[nH]c2ccccc12)C(=O)N[C@H](Cc1ccccc1)C(=O)N[C@@H](CNC(=O)c1ccc(F)cc1)C(N)=O [Dpr-4-FB-GHRP-6, H-His-D-Trp-Ala-Trp-D-Phe-Dpr(4-FB)-NH2] (H-H[dW]AW[dF][Dap](Benzoyl(4-F))-NH2) | 1060 nM
7 | CC(F)C(=O)NCCCC[C@H](NC(=O)[C@H](CO)NC(=O)[C@H](Cc1ccccc1)NC(=O)[C@@H](Cc1ccc2ccccc2c1)NC(=O)[C@@H](Cc1ccc2ccccc2c1)NC(=O)C1CCNCC1)C(N)=O (stereo partly drawn) [TL-MF-4-2FP, H-Inp-(D-2-Nal)2-Phe-Ser-Lys(2-FP)-NH2] (H-[Inp][d2Nal][d2Nal]FSK(Propanoyl(2-F))-NH2) | 4.35 nM
8 | CC(C)(N)C(=O)N[C@@H](Cc1c[nH]cn1)C(=O)N[C@H](Cc1ccc2ccccc2c1)C(=O)N[C@H](Cc1ccccc1)C(=O)N[C@@H](CCCCNC(=O)c1ccc(F)cc1)C(N)=O [4-FB-Ipamorelin, H-Aib-His-D-2-Nal-D-Phe-Lys(4-FB)-NH2] (H-[Aib]H[d2Nal][dF]K(Benzoyl(4-F))-NH2) | 170 nM
9 | C[C@H](N)C(=O)N[C@@H](Cc1c[nH]cn1)C(=O)N[C@H](Cc1ccc2ccccc2c1)C(=O)N[C@@H](C)C(=O)N[C@@H](Cc1c[nH]c2ccccc12)C(=O)N[C@H](Cc1ccccc1)C(=O)N[C@@H](CCCCN)C(N)=O [GHRP-1, H-Ala-His-D-2-Nal-Ala-Trp-D-Phe-Lys-NH2, reference compound] (H-AH[d2Nal]AW[dF]K-NH2) | 181 nM
10 | NC(=O)[C@H](CCCCNC(=O)c1ccc(F)cc1)NC(=O)[C@@H](Cc1ccccc1)NC(=O)[C@@H](Cc1ccc2ccccc2c1)NC(=O)[C@H](Cc1c[nH]cn1)NC(=O)C1CCNCC1 [Inp-4-FB-Ipamorelin, H-Inp-His-D-2-Nal-D-Phe-Lys(4-FB)-NH2] (H-[Inp]H[d2Nal][dF]K(Benzoyl(4-F))-NH2) | 688 nM
11 | CC(F)C(=O)NCCCC[C@H](NC(=O)[C@H](Cc1ccc(O)cc1)NC(=O)[C@@H](Cc1ccc2ccccc2c1)NC(=O)[C@@H](Cc1ccc2ccccc2c1)NC(=O)C1CCNCC1)C(N)=O (stereo partly drawn) [TL-MF-3-2FP, H-Inp-D-2-Nal-D-2-Nal-Tyr-Lys(2-FP)-NH2] (H-[Inp][d2Nal][d2Nal]YK(Propanoyl(2-F))-NH2) | 0.283 nM
12 | CC(F)C(=O)NCCCC[C@H](NC(=O)[C@H](CO)NC(=O)[C@@H](Cc1ccc2ccccc2c1)NC(=O)[C@@H](Cc1ccc2ccccc2c1)NC(=O)C1CCNCC1)C(N)=O (stereo partly drawn) [TL-MF-2-2FP, H-Inp-(D-2-Nal)2-Ser-Lys(2-FP)-NH2] (H-[Inp][d2Nal][d2Nal]SK(Propanoyl(2-F))-NH2) | 60.3 nM
13 | NC(=O)[C@H](CCCCNC(=O)c1ccc(F)cc1)NC(=O)[C@@H](Cc1cccs1)NC(=O)[C@@H](Cc1ccc2ccccc2c1)NC(=O)[C@H](Cc1c[nH]cn1)NC(=O)C1CCNCC1 [Inp-Thi-4-FB-Ipamorelin, H-Inp-His-D-2-Nal-D-2-Thi-Lys(4-FB)-NH2] (H-[Inp]H[d2Nal][d2Thi]K(Benzoyl(4-F))-NH2) | 1170 nM
14 | CC(C)(N)C(=O)N[C@@H](Cc1c[nH]cn1)C(=O)N[C@H](Cc1ccc2ccccc2c1)C(=O)N[C@H](Cc1ccccc1)C(=O)N[C@@H](CCCCN)C(N)=O [Ipamorelin, H-Aib-His-D-2-Nal-D-Phe-Lys-NH2, reference compound] (H-[Aib]H[d2Nal][dF]K-NH2) | 483 nM
15 | NC(=O)[C@H](CCCCNC(=O)c1ccc(F)cc1)NC(=O)[C@H](Cc1ccccc1)NC(=O)[C@@H](Cc1ccc2ccccc2c1)NC(=O)[C@@H](Cc1ccc2ccccc2c1)NC(=O)C1CCNCC1 [Compound 4-FB-G-7039, H-Inp-D-2-Nal-D-2-Nal-Phe-Lys(4-FB)-NH2] (H-[Inp][d2Nal][d2Nal]FK(Benzoyl(4-F))-NH2) | 242 nM
16 | NCCCC[C@H](NC(=O)[C@H](Cc1ccccc1)NC(=O)[C@@H](Cc1ccc2ccccc2c1)NC(=O)[C@@H](Cc1ccc2ccccc2c1)NC(=O)C1CCNCC1)C(N)=O [Compound G-7039, H-Inp-D-2-Nal-D-2-Nal-Phe-Lys-NH2, reference compound] (H-[Inp][d2Nal][d2Nal]FK-NH2) | 5.21 nM
17 | NC(=O)[C@H](CCCCNC(=O)c1ccc(F)cc1)NC(=O)[C@@H](Cc1ccc2ccccc2c1)NC(=O)[C@@H](Cc1ccc2ccccc2c1)NC(=O)[C@H](Cc1c[nH]cn1)NC(=O)C1CCNCC1 [MMF-01-140-H, H-Inp-His-D-2-Nal-D-2-Nal-Lys(4-FB)-NH2] (H-[Inp]H[d2Nal][d2Nal]K(Benzoyl(4-F))-NH2) | 1920 nM
18 | NC(=O)[C@H](CCCCNC(=O)c1ccc(F)cc1)NC(=O)[C@H](Cc1cccc2ccccc12)NC(=O)[C@@H](Cc1ccc2ccccc2c1)NC(=O)[C@@H](Cc1ccc2ccccc2c1)NC(=O)C1CCNCC1 [MMF-01-115-H, H-Inp-D-2-Nal-D-2-Nal-1-Nal-Lys(4-FB)-NH2] (H-[Inp][d2Nal][d2Nal][1Nal]K(Benzoyl(4-F))-NH2) | 68.8 nM

Molecular target: Human recombinant ghrelin receptor (Homo sapiens, UniProt Q92847)
Test: Calcium flux dose-response assay (FLIPR TETRA, EMD Millipore GPCRProfiler)
Type: cell-based
Settings: FIGS. 51 and 52, Example 3
Protocol: Another in vitro assay performed on the 4-fluorobenzoyl agonist [1-Nal^4,Lys^5(4-FB)]G-7039 and the [Lys^5(2-FP)]G-7039 agonist was a calcium flux dose-response assay. […] In this particular case, the biological effect of the peptidomimetic [1-Nal^4,Lys^5(4-FB)]G-7039 and the peptidomimetic [Lys^5(2-FP)]G-7039 is the release of intracellular calcium ions, a process which is detected by fluorescence using a […] instrument.
If the compound remained soluble 15 minutes after addition, samples were shipped to the EMD Millipore Corporation (15 Research Park Drive, St. Charles, Mo. 63304, USA). […] The agonist assay was performed for a total of 180 seconds. Each assay and assay concentration was performed in duplicate. The data acquired is presented in FIG. 51 ([1-Nal^4,Lys^5(4-FB)]G-7039) and FIG. 52 (Lys^5(2-FP)]G-7039).

Chain of Human recombinant ghrelin receptor (Q92847 whole entry): as above

Row | Compound | EC50 value compared with ghrelin
19 | CC(F)C(=O)NCCCC[C@H](NC(=O)[C@H](Cc1ccccc1)NC(=O)[C@@H](Cc1ccc2ccccc2c1)NC(=O)[C@@H](Cc1ccc2ccccc2c1)NC(=O)C1CCNCC1)C(N)=O (stereo partly drawn) [Compound 2-FP-G-7039, H-Inp-D-2-Nal-D-2-Nal-Phe-Lys(2-FP)-NH2] (H-[Inp][d2Nal][d2Nal]FK(Propanoyl(2-F))-NH2) | below that of ghrelin
20 | NC(=O)[C@H](CCCCNC(=O)c1ccc(F)cc1)NC(=O)[C@H](Cc1cccc2ccccc12)NC(=O)[C@@H](Cc1ccc2ccccc2c1)NC(=O)[C@@H](Cc1ccc2ccccc2c1)NC(=O)C1CCNCC1 [MMF-01-115-H, H-Inp-D-2-Nal-D-2-Nal-1-Nal-Lys(4-FB)-NH2] (H-[Inp][d2Nal][d2Nal][1Nal]K(Benzoyl(4-F))-NH2) | below that of ghrelin

Same assay, conditions: chem-1 cells, Fluo-8 NW dye, duplicate; read-out: EC50, intracellular Ca2+ release

Row | Compound | EC50
21 | NC(=O)[C@H](CCCCNC(=O)c1ccc(F)cc1)NC(=O)[C@H](Cc1cccc2ccccc12)NC(=O)[C@@H](Cc1ccc2ccccc2c1)NC(=O)[C@@H](Cc1ccc2ccccc2c1)NC(=O)C1CCNCC1 [MMF-01-115-H, H-Inp-D-2-Nal-D-2-Nal-1-Nal-Lys(4-FB)-NH2] (H-[Inp][d2Nal][d2Nal][1Nal]K(Benzoyl(4-F))-NH2) | 1.1 nM

Test system: GH release
Test: not given
Settings: Elias et al., Endocrinology 1995, read-out: EC50, reported half-maximal effective concentration; cited from earlier work

Row | Compound | EC50
22 | NCCCC[C@H](NC(=O)[C@H](Cc1ccccc1)NC(=O)[C@@H](Cc1ccc2ccccc2c1)NC(=O)[C@@H](Cc1ccc2ccccc2c1)NC(=O)C1CCNCC1)C(N)=O [Compound G-7039, H-Inp-D-2-Nal-D-2-Nal-Phe-Lys-NH2, reference compound] (H-[Inp][d2Nal][d2Nal]FK-NH2) | 0.18 nM
